The record followed here is patent US20210106703A1, “RADIOIMMUNOCONJUGATES IN COMBINATION WITH OTHER DRUGS AS TREATMENT AGAINST NHL” (Nordic Nanovector ASA, priority 2017, published 2021).

Assay [1] relates to U-2932 cells. The experiment in a line: Real Time Glo viability screen and validation, Betalutin with PARP or cell cycle kinase inhibitors (Examples 4, 7). It counts as cell-based, human. How it is done:
(§1) DLBCL cell lines U2932 and RIVA were maintained in RPMI 1640-GlutaMAX medium (Gibco) supplemented with 15% fetal bovine serum (Biowest) and 1% penicillin-streptomycin (Gibco) at 37° C. in a humidified atmosphere containing 5% CO2. Cells were split twice a week 1:7 and diluted 2-4 days before start of the experiment, to ensure they are in exponential growth at the beginning of the experiment.
(§2) Cells were treated in 6-well plates without shaking for 18 h with Betalutin at a final concentration of 1 μg/ml for U2932 and 0.5 μg/ml for RIVA. After treatment, PBS was added to the cells, and the cells pelleted. Cells were first resuspended in 1 ml PBS, then washed twice in PBS and finally diluted in growth medium to a final concentration of 2.5*10^6 cells/ml.
(§3) Cells density measurements were performed the day before seeding. Based on these measurements cells were seeded in 384-well plates at a density of 3000 cells per well in a culturing volume of 25 μl (resulting in start titers: 120 000 cells/ml) using a robot. For measuring viability using Real Time Glo (Promega, WI, USA), the Cell Viability Substrate and NanoLuc® Enzyme were diluted 1:500 in growth medium, and 25 μL of diluted reagents dispensed in each well by a robot. All reagents were equilibrated to 37° C. Cells were incubated with the reaction mix for 1 h at 37° C. before the first measurement of luminescence. Measurements were repeated as often as required within 72 h after adding the reagents. A Tecan SPARK 10M plate reader (Tecan, SUI) was used to measure luminescence, with the integration time set to 1 sec.
(§4) The screen was performed in 384-well plate with selected PARP inhibitors (stock solutions 10 mM in DMSO) acquired from SelleckChem (Selleckchem, TX, USA). To include no-drug controls, the drug panel (Table 6) was divided on two plates. Due to previous observations of cells growing poorly in wells located at the edges of the plates, the two outer most rows and columns were not used. As previously mentioned three different drug concentrations were used in the screen, 10 nM and 1 μM for U2932 and 10 and 100 nM for RIVA.
(§5) Candidate hits were identified using the Bliss Independence test for synergy. The effect of each drug alone at each concentration was calculated as the fraction of dead cells as compared to control cells Fa=(1−(RLUdrug/avgRLUcontrol), a similar calculation was performed for the effect of Betalutin alone Fb=(1−(avgRLUBetalutin/avgRLUcontrol). Through the following equation we found the expected additive effect of the combination of drug+Betalutin: Expected effect (E)Fab=(Fa+Fb−Fa*Fb). We subtracted this expected effect from the measured effect (M)Fab=(1−(RLUDrug+Betalutin/avgRLUcontrol) to get a value (Diff)Fab representing how the measured effect differed from the expected additive effect of the combination. This value was normalized to the survival fraction of drug alone: (Diff)Fab#=(Diff)Fab/(1−Fa). Furthermore, to get a measure of how big the well-to-well variation was, we calculated the standard deviation for the effect of Betalutin alone in the 48 control wells on each plate: (STDEV)Fb=(RLUBetalutin/RLUcontrol)−(averageRLUBetalutin/averageRLUcontrol). Drugs with a value (Diff)Fab#two times higher than the standard deviation of Betalutin treated controls, (STDEV)Fb, were scored as hits.
as §3, with “Measurements were repeated as often as required within 72 h after adding the reagents. A Tecan SPARK 10M plate reader (Tecan, SUI) was used to measure luminescence, with the integration time set to 1 sec.” left out

Assay [2] concerns RIVA cells. The experiment in a line: Real Time Glo viability screen, Betalutin with PARP or cell cycle kinase inhibitors (Examples 4, 7). It counts as cell-based, human. The conditions noted are these: RIVA. How it is done:
as §1, §2, §3, §4, §5
as §3, with “Measurements were repeated as often as required within 72 h after adding the reagents. A Tecan SPARK 10M plate reader (Tecan, SUI) was used to measure luminescence, with the integration time set to 1 sec.” left out

Assay [3] concerns DOHH2 cells. Put plainly: Cell cycle analysis (PI, Muse flow cytometer). The assay is classed as cell-based, human. How it is done: (§6) Cells were harvested at day 0, 2 h, 18 h, 1 d, 2 d, 3 d, of RIT then fixed in 70% ethanol at −20° C. for 3 hours and stained with Cell Cycle kit (with PI) reagent from Merck Millipore in the dark for 30 min at room temperature before analysis using a Muse® flow cytometer. The percentage of cells in G0/G1, S and G2/M phases was then calculated (mean of three experiments in triplicate).
(§7) At different times after start of incubation, proteins were extracted to measure the CDK1 phosphorylation levels, in parallel, proliferation was determined and at 18 h and 24 h after start of incubation, the percentage of cells in G2/M was assessed (experiments were performed three time except the cell cycle analysis).
(§8) Cells were harvested at 0 h, 2 h, 18 h, 1 d, 2 d, 3 d, and fixed in 70% ethanol at −20° C. for at least 3 h. After staining with the Muse® Cell Cycle Assay Kit (Merck Millipore, Molsheim, France) using propidium iodide in the dark at room temperature for 30 min, cell cycle distribution was analyzed using a Muse® flow cytometer. The percentage of cells in the G0/G1, S and G2/M was calculated (mean of three experiments in triplicate) and the effect of WEE-1 and MYT-1 kinase inhibitors on the cell cycle was assessed.
On the technique in general: In flow cytometry, cells or beads pass a laser one at a time.

Assay [4] concerns Ramos cells. Put plainly: Cell cycle analysis (PI, Muse flow cytometer). It counts as cell-based, human. How it is done: as §6, §7, §8
Assay [5] has as its system Rec-1 cells. Put plainly: Cell cycle analysis (PI, Muse flow cytometer). It counts as cell-based, human. How it is done:
as §6, §7, §8

Assay [6] concerns OCI-Ly8 tumor xenografts. The experiment in a line: Treatment of mice with tumor xenografts.
Assay [7] relates to Ramos tumor xenografts. The experiment in a line: Treatment of mice with tumor xenografts. The assay is classed as in vivo, athymic mice. The conditions noted are these: Ramos xenograft. An excerpt:
Each treatment group included 6-9 mice.

Turning to `Nc1nc(Nc2ccc(S(N)(=O)=O)cc2)nn1C(=O)c1c(F)cccc1F` [JNJ-7706621], in assay [1] (Homo sapiens, U2932, 120 h, U-2932, drug 1 μM, five days into treatment, read-out: Growth inhibition, drug alone), the inhibition at 1 µM is ~40%. Moreover, the inhibition at 0.64 µM in assay [1] (Homo sapiens, U2932, U-2932, drug 640 nM, read-out: Growth inhibition, drug with Betalutin pre-treatment) was ~80%. For the same molecule, the “Growth inhibitory effect, drug alone” value is recorded as “no growth inhibitory effect” in assay [1] (U-2932, drug 10 nM) and “no growth inhibitory effect” in assay [2] (drug 100 nM). Besides, the “Combined growth inhibition with Betalutin pre-treatment” value in assay [1] (U-2932, drug 1 μM + Betalutin) is “more than 60%”. In assay [1] (U-2932, drug 80-1280 nM with 0.5, 1 or 2 μg/ml Betalutin, day 5), the “Synergy by combination index” value is on record as “Synergy was found for all tested combinations”. Further, the “Synergy by combination index, confirmation experiments” value in assay [1] (U-2932, drug 100-5000 nM with Betalutin 0.5-5 μg/ml, day 5) is recorded as “observed for all but two combinations”. Further, the “Growth impairment, drug alone” value in assay [1] (U-2932, highest tested dose 1280 nM) is recorded as 30%. Besides, the “BLISS analysis, combination with Betalutin versus expected additive effect” value in assay [1] (U-2932, significant = more than twice the SD of Betalutin alone) is “significantly greater than the expected additive effect”.

For the molecule `C=CCn1c(=O)c2cnc(Nc3ccc(N4CCN(C)CC4)cc3)nc2n1-c1cccc(C(C)(C)O)n1` [MK-1775], the “Proportion of cells in G2/M, inhibitor combined with ^177Lu-lilotomab” value in assay [3] (DOHH2, 1 μM inhibitor + ^177Lu-lilotomab, versus ^177Lu-lilotomab alone or untreated) was “reduction of the fraction of G2/M cells”; in assay [4] (1 μM inhibitor + ^177Lu-lilotomab, versus ^177Lu-lilotomab alone or untreated) it was “reduction of the fraction of G2/M cells”; in assay [5] (Rec-1, 1 μM inhibitor + ^177Lu-lilotomab, versus ^177Lu-lilotomab alone or untreated), “reduction of the fraction of G2/M cells”. In assay [6] (250 MBq/kg ^177Lu-lilotomab + MK-1775, p=0.05), the “Tumor growth delay versus ^177Lu-lilotomab alone” value is listed as “significantly better”. The “Efficacy of combination versus 500 MBq/kg ^177Lu-lilotomab alone” value in assay [6] (250 MBq/kg ^177Lu-lilotomab + MK-1775, p=0.7070) is listed as “as efficient as 500 MBq/kg”. In addition, the “Therapeutic efficacy compared with control” value in assay [6] (single agent) is recorded as “no therapeutic efficacy”. Also, the Median survival in assay [7] (250 MBq/kg ^177Lu-lilotomab + 30 mg/kg MK-1775 twice a day, day 1 to 5) stood at 47 days. Besides, in assay [7] (250 MBq/kg ^177Lu-lilotomab + MK-1775, p=0.001), the “Tumor growth versus 250 MBq/kg ^177Lu-lilotomab alone” value is recorded as “significantly delayed tumor growth”.

B1: Lutetium-177 [^177Lu]-lilotomab satetraxetan (conjugate, chains of the INN, looked up)
VH: EIQLQQSGPELVKPGASVKVSCKASGYSFTDYNMYWVKQSHGKSLEWIGYIDPYNGDTTYNQKFKGKATLTVDKSSSTAFIHLNSLTSEDSAVYYCARSPYGHYAMDYWGQGTSVTVSS
VL: DIVMTQSHKLLSTSVGDRVSITCKASQDVSTAVDWYQQKPGQSPKLLINWASTRHTGVPDRFTGSGSGTDYTLTISSMQAEDLALYYCRQHYSTPFTFGSGTKLEIK
modifications: 177Lu satetraxetan chelator conjugate
With B1, the “Proportion of cells showing a G2/M cell cycle arrest” value was found to be 45±11% in assay [3] (DOHH2, 6 MBq/mL, at 24 h); 64±16% in assay [4] (6 MBq/mL, at 24 h); 44±11% in assay [5] (Rec-1, 6 MBq/mL, at 24 h). Further, the “Proliferation relative to non-treated cells” value in assay [1] (U-2932, 1 μg/ml [600 MBq/mg]) is recorded as “more than 80%”; in assay [2] (0.5 μg/ml [600 MBq/mg], days 4-6), “more than 40%”. Further, the “Inhibition of proliferation capacity, single treatment” value is on record as “less than 10%” in assay [1] (U-2932, Betalutin 1 μg/ml, days 5 and 6); “about 50%” in assay [2] (Betalutin 0.5 μg/ml, days 5 and 6). The “Proliferation potential compared to untreated cells” value in assay [1] (U-2932, validation screen, highest Betalutin dose (2 μg/ml)) is given as “about 70%”. The Median survival entry is “significantly improved” in assay [6] (250 MBq/kg, p=0.0062) and 40 days in assay [7] (250 MBq/kg ^177Lu-lilotomab alone). Moreover, the Tumor growth delay entry in assay [6] (250 MBq/kg, p=0.015) was “significantly improved”.

The term inhibition denotes the share of the control response that was lost under treatment.
